Data as given in patent publication US8192962B2, “Processes for detecting toxic substances” (Daikin Industries, Ltd., priority 2001, dated 2012).

Test system: Genes belonging to other category
Assay: DNA chip mRNA expression in yeast, genes belonging to other category (Table 9)
Assay type: cell-based, Saccharomyces cerevisiae S288C
Procedure, shortened: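 S. cerevisiae S288C grown at 25° C in YPD were exposed in log phase for two hours to one toxic chemical at a growth-inhibiting, non-lethal concentration; untreated cells served as control. Poly(A) mRNA was reverse-transcribed with Cy3/Cy5-dUTP and hybridized to a whole-genome yeast DNA chip at 65° C for over 12 hours; values are fluorescence ratios versus untreated.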

Measured: The level of expressed mRNA in the presence of chemical substance/The level of expressed mRNA in the absence of chemical substance

CCCCCCCCCCCCOS(=O)(=O)[O-].[Na+] [(18), sodium lauryl sulfate]
3.5: yeast gene YCR004C
2.2: yeast gene YLR250W
1.6: yeast gene YBR173C | yeast gene YBR286W | yeast gene YDL008W | yeast gene YDR373W | yeast gene YHR004C | yeast gene YJR086W | yeast gene YMR112C | yeast gene YMR314W | yeast gene YOR132W | yeast gene YOR288C
2.3: yeast gene YDL192W | yeast gene YKL193C | yeast gene YNR010W
0.7: yeast gene YDR432W | yeast gene YJL116C | yeast gene YKL096W | yeast gene YMR275C | yeast gene YMR276W
1.9: yeast gene YDR055W | yeast gene YDR358W | yeast gene YGL166W | yeast gene YGR135W | yeast gene YKL008C | yeast gene YMR104C | yeast gene YNL036W | yeast gene YOR261C
1.1: yeast gene YBL101C | yeast gene YCR038C | yeast gene YDR169C | yeast gene YEL066W | yeast gene YER039C | yeast gene YER066W | yeast gene YGL158W | yeast gene YGR036C | yeast gene YIL050W | yeast gene YIR039C | yeast gene YJL089W | yeast gene YJR050W | yeast gene YNL333W | yeast gene YNL335W | yeast gene YOR003W | yeast gene YOR185C | yeast gene YOR383C | yeast gene YPL089C | yeast gene YPL220W
2.4: yeast gene YBR009C
2.5: yeast gene YDR041W | yeast gene YER130C | yeast gene YIL076W | yeast gene YMR110C
2.0: yeast gene YBL041W | yeast gene YMR226C | yeast gene YPL154C
1.4: yeast gene YBR170C | yeast gene YDR115W | yeast gene YDR168W | yeast gene YDR264C | yeast gene YDR481C | yeast gene YFL029C | yeast gene YFR004W | yeast gene YHL024W | yeast gene YJR019C | yeast gene YLR136C | yeast gene YMR297W | yeast gene YOL013C
0.9: yeast gene YBR177C | yeast gene YBR239C | yeast gene YCR067C | yeast gene YCR088W | yeast gene YDL220C | yeast gene YGL094C | yeast gene YGL229C | yeast gene YJR047C | yeast gene YJR117W | yeast gene YJR119C | yeast gene YJR123W | yeast gene YJR145C | yeast gene YLR391W | yeast gene YLR429W | yeast gene YMR219W | yeast gene YNR069C | yeast gene YOR117W | yeast gene YOR355W
8.5: yeast gene YGR213C
0.4: yeast gene YJR004C
3.1: yeast gene YNL093W
1.7: yeast gene YFR050C | yeast gene YGR189C | yeast gene YJL164C | yeast gene YKL013C | yeast gene YOR036W
1.8: yeast gene YBL043W | yeast gene YDR085C | yeast gene YGR136W | yeast gene YKL117W
0.6: yeast gene YOR181W
1.3: yeast gene YCL020W | yeast gene YCR071C | yeast gene YDL238C | yeast gene YDR084C | yeast gene YDR388W | yeast gene YGR257C | yeast gene YHR139C | yeast gene YHR142W | yeast gene YKL007W | yeast gene YKL039W | yeast gene YKL041W | yeast gene YLR362W | yeast gene YMR004W | yeast gene YNL006W | yeast gene YOL164W | yeast gene YPR108W
3.2: yeast gene YLR093C
1.5: yeast gene YDR510W | yeast gene YFL028C | yeast gene YOR198C | yeast gene YOR259C | yeast gene YPR103W
2.8: yeast gene YBL078C
3.8: yeast gene YOL016C
1.0: yeast gene YAR010C | yeast gene YBL005W-A | yeast gene YDR104C | yeast gene YDR403W | yeast gene YHR027C | yeast gene YHR071W | yeast gene YIL123W | yeast gene YIL140W | yeast gene YJL035C | yeast gene YJL073W | yeast gene YJL210W | yeast gene YKL165C | yeast gene YLR356W | yeast gene YMR094W | yeast gene YNL007C | yeast gene YOR124C
3.6: yeast gene YLR178C
0.8: yeast gene YCL027W | yeast gene YDR188W | yeast gene YDR259C | yeast gene YEL042W | yeast gene YFL022C | yeast gene YGL150C | yeast gene YGL207W | yeast gene YIL142W
1.2: yeast gene YBL101W-A | yeast gene YBR076W | yeast gene YBR214W | yeast gene YCR106W | yeast gene YDL065C | yeast gene YDL230W | yeast gene YDR022C | yeast gene YDR125C | yeast gene YDR181C | yeast gene YDR315C | yeast gene YDR392W | yeast gene YER107C | yeast gene YFL043C | yeast gene YGL093W | yeast gene YGL141W | yeast gene YGR048W | yeast gene YGR186W | yeast gene YGR232W | yeast gene YHR163W | yeast gene YJL103C | yeast gene YJR036C | yeast gene YJR058C | yeast gene YKL056C | yeast gene YKL079W | yeast gene YKL171W | yeast gene YLR206W | yeast gene YML130C | yeast gene YMR091C | yeast gene YNL196C | yeast gene YNR006W | yeast gene YOL005C | yeast gene YOL152W | yeast gene YOR133W | yeast gene YOR157C | yeast gene YOR265W | yeast gene YPL001W | yeast gene YPL109C | yeast gene YPL124W | yeast gene YPR066W | yeast gene YPR086W
5.3: yeast gene YLR327C
2.9: yeast gene YFR014C | yeast gene YLR120C | yeast gene YPL149W
